How the values were obtained:
Assay type in all cases: functional
[1] = test system: Klebsiella aerogenes; test: microbe, parasite or virus in culture; conditions: ATCC 13048, 24 h
Description: Antibacterial activity against Enterobacter aerogenes ATCC 13048 after 24 hrs by CLSI broth microdilution assay

[2] = test system: Saccharomyces cerevisiae; test: microbe, parasite or virus in culture; conditions: ATCC 9763, 24 h
Description: Antifungal activity against Saccharomyces cerevisiae ATCC 9763 after 24 hrs by CLSI broth microdilution assay

[3] = test system: Candida albicans; test: microbe, parasite or virus in culture; conditions: ATCC 90028, 24 h
Description: Antifungal activity against Candida albicans ATCC 90028 after 24 hrs by CLSI broth microdilution assay

[4] = test system: Staphylococcus epidermidis; test: microbe, parasite or virus in culture; conditions: ATCC 14990, 24 h
Description: Antibacterial activity against Staphylococcus epidermidis ATCC 14990 after 24 hrs by CLSI broth microdilution assay

[5] = test system: Escherichia coli; test: microbe, parasite or virus in culture; conditions: ATCC 25922, 24 h
Description: Antibacterial activity against Escherichia coli ATCC 25922 after 24 hrs by CLSI broth microdilution assay

[6] = test system: Bacillus subtilis; test: microbe, parasite or virus in culture; conditions: ATCC 6051, 24 h
Description: Antibacterial activity against Bacillus subtilis ATCC 6051 after 24 hrs by CLSI broth microdilution assay

[7] = Selectivity index, ratio of MIC for Saccharomyces cerevisiae ATCC 9763 to MIC for Staphylococcus epidermidis ATCC 14990
[8] = Selectivity index, ratio of MIC for Candida albicans ATCC 90028 to MIC for Bacillus subtilis ATCC 6051
[9] = Selectivity index, ratio of MIC for Enterobacter aerogenes ATCC 13048 to MIC for Bacillus subtilis ATCC 6051
[10] = Selectivity index, ratio of MIC for Escherichia coli ATCC 25922 to MIC for Staphylococcus epidermidis ATCC 14990
[11] = Selectivity index, ratio of MIC for Saccharomyces cerevisiae ATCC 9763 to MIC for Bacillus subtilis ATCC 6051
[12] = Selectivity index, ratio of MIC for Candida albicans ATCC 90028 to MIC for Staphylococcus epidermidis ATCC 14990
[13] = Selectivity index, ratio of MIC for Escherichia coli ATCC 25922 to MIC for Bacillus subtilis ATCC 6051
[14] = Selectivity index, ratio of MIC for Enterobacter aerogenes ATCC 13048 to MIC for Staphylococcus epidermidis ATCC 14990

MIC [1] [µM] | MIC [2] [µM] | MIC [3] [µM] | MIC [4] [µM] | MIC [5] [µM] | MIC [6] [µM] | Structure (SMILES) | Selectivity Index [7] | Selectivity Index [8] | Selectivity Index [9] | Selectivity Index [10] | Selectivity Index [11] | Selectivity Index [12] | Selectivity Index [13] | Selectivity Index [14]
> 250 | > 250 | > 250 | 16 | > 250 | 16 | Cc1ccc(-[n+]2nn(Cc3ccc(C(C)(C)C)cc3)cc2-c2ccccc2)cc1 | – | – | – | – | – | – | – | –
31 | 16 | 8 | 2 | 31 | 1 | CCCCCCCCc1cn(Cc2ccccc2)n[n+]1Cc1ccc(C(C)(C)C)cc1 | – | – | – | – | – | – | – | –
16 | 8 | 4 | 2 | 16 | 2 | CCCCCCCCc1cn(-c2ccc(C)cc2)n[n+]1Cc1ccc(C(C)(C)C)cc1 | – | – | – | – | – | – | – | –
> 250 | > 250 | > 250 | > 250 | > 250 | > 250 | Cc1ccc(-n2cc(-c3ccccc3)[n+](Cc3ccccc3)n2)cc1 | – | – | – | – | – | – | – | –
> 250 | 250 | 250 | 8 | > 250 | 4 | CCCCCCCCc1cn(-c2ccc(C)cc2)n[n+]1Cc1ccccc1 | > 50 | > 50 | > 50 | > 50 | > 50 | > 50 | > 50 | > 50
> 250 | 250 | 250 | 8 | > 250 | 8 | CCCCc1cn(Cc2ccccc2)n[n+]1Cc1ccc(C(C)(C)C)cc1 | – | – | – | – | – | – | – | –
250 | 16 | 8 | 2 | 250 | 2 | CCCCCCCCCCCCc1cn(Cc2ccccc2)n[n+]1Cc1ccc(C(C)(C)C)cc1 | – | – | – | – | – | – | – | –
> 250 | > 250 | > 250 | 8 | > 250 | 8 | Cc1ccc(-n2cc(-c3ccccc3)[n+](Cc3ccc(C(C)(C)C)cc3)n2)cc1 | – | – | – | – | – | – | – | –
8 | 8 | 8 | 2 | 8 | 1 | CCCCCCCCCCCCc1cn(-c2ccc(C)cc2)n[n+]1Cc1ccccc1 | – | – | – | – | – | – | – | –
> 250 | > 250 | > 250 | > 250 | > 250 | > 250 | CCCCc1cn(-c2ccc(C)cc2)n[n+]1Cc1ccccc1 | – | – | – | – | – | – | – | –
> 250 | 250 | 250 | 8 | > 250 | 8 | CCCCCCCCc1cn(Cc2ccccc2)n[n+]1Cc1ccccc1 | – | – | – | – | – | – | – | –
> 250 | > 250 | > 250 | > 250 | > 250 | > 250 | CCCCc1cn(Cc2ccccc2)n[n+]1Cc1ccccc1 | – | – | – | – | – | – | – | –
> 250 | > 250 | > 250 | > 250 | > 250 | > 250 | Cc1ccc(-[n+]2nn(Cc3ccccc3)cc2-c2ccccc2)cc1 | – | – | – | – | – | – | – | –
250 | 4 | 4 | 2 | 250 | 2 | CCCCCCCCCCCCc1cn(-c2ccc(C)cc2)n[n+]1Cc1ccc(C(C)(C)C)cc1 | – | – | – | – | – | – | – | –
16 | 16 | 16 | 4 | 16 | 2 | CCCCCCCCCCCCc1cn(Cc2ccccc2)n[n+]1Cc1ccccc1 | – | – | – | – | – | – | – | –
> 250 | 250 | 250 | 4 | 250 | 4 | CCCCc1cn(-c2ccc(C)cc2)n[n+]1Cc1ccc(C(C)(C)C)cc1 | > 50 | > 50 | > 50 | > 50 | > 50 | > 50 | > 50 | > 50

Reference: ChEMBL document CHEMBL4261591, “Antimicrobial 1,3,4-trisubstituted-1,2,3-triazolium salts” (2018)
